Test results from patent publication US20240166637A1, “COMPOUNDS AND METHODS FOR TREATING MALARIA” (Microbiotix, Inc., priority 2021, published 2024).
In brackets after ≈: the same amount, converted by molar mass. Where two headings read alike, the source gives them in different places.

Columns and labels:
PSAC = experiment: Transport inhibition assay: PSAC block by osmotic lysis of infected cells in sorbitol (transmittance); type: cell-based, P. falciparum; conditions: for PSAC K0.5: Table 6
Description: Transport experiments were conducted to examine the affinity of the inhibitor compounds for PSAC. Inhibitor affinity for blocking PSAC was determined using a quantitative transmittance assay which is based on the osmotic lysis of infected cells with sorbitol (Desai, S., and A. Pillai, U.S. Pat. No. 8,618,090, supra (2013); Dondorp et al., supra (2009); Hooft van Huijsduijnen, R., and T. N. Wells, supra (2018)). Malaria parasite cultures were enriched at the trophozoite stage via the Percoll-sorbitol method (Pillai et al., Mol. Pharmacol., 82:1104-1114 (2012); Pillai et al., Mol. Pharmacol., 77:724-733 (2010); Wagner et al., Biophys. J., 84:116-123 (2003)), washed, and resuspended at 37° C. and 0.15% hematocrit in 280 mM sorbitol, 20 mM Na-HEPES, 0.1 mg/ml bovine serum albumin, pH 7.4, with the indicated concentrations of inhibitor compounds. Osmotic lysis, resulting from PSAC-mediated sorbitol uptake, was continuously tracked with transmittance measurements through the cell suspension (700-nm wavelength, DU640 spectrophotometer with Peltier temperature control; Beckman Coulter, Fullerton, CA).
Inhibitor dose-response relationships (K0.5 values) were calculated from the times required to reach a fractional lysis threshold. K0.5 estimates obtained with the osmotic lysis assay match those obtained using cell-attached and whole-cell patch-clamp assays (Alkhalil et al., Blood, 104:4279-4286 (2004); Dondorp et al., N. Engl. J. Med., 361:455-467 (2009)), confirming a quantitatively robust and valid assay.

P. falciparum = experiment: In vitro parasite growth inhibition in PGIM (SYBR Green I); type: cell-based
Description: P. falciparum laboratory lines were propagated at the asexual stage with standard methods, in RPMI 1640 medium supplemented with 25 mM HEPES, 31 mM NaHCO3, 0.37 mM hypoxanthine, 10 μg/ml gentamicin, and 10% pooled human serum. Nutrient deprivation experiments utilized standard PSAC Growth Inhibition Medium (PGIM) but with reduced concentrations of individual ingredients. Human serum was exhaustively dialyzed against distilled water before addition to those media. The PGIM contained reduced concentrations of isoleucine (11.4 μM), glutamine (102 μM), and hypoxanthine (3.01 μM) and was supplemented with the dialyzed human serum. Growth inhibition experiments (Burrows et al., Parasitology, 141:128-139 (2013)) were quantified by using a SYBR Green I-based fluorescence assay for parasite nucleic acid in 96-well microplates, as described previously (Dondorp et al., supra (2009)). Ring-stage synchronized cultures were seeded at 1% parasitemia and 2% hematocrit levels in standard medium or PGIM and were maintained for 72 hr at 37° C. in 5% O2/5% CO2 in nitrogen, without medium changes. Cultures were then lysed in 20 mM Tris, 10 mM EDTA, 0.016% saponin, 1.6% Triton X-100, pH 7.5, with SYBR Green I nucleic acid gel stain (Invitrogen, Carlsbad, CA) at 5000-fold dilution.
After a […] incubation, parasite DNA contents were quantified through fluorescence measurements (excitation, 485 nm; emission, 528 nm). Results were presented as IC50 values, defined as the concentration of inhibitor which decreases P. falciparum (Pf) DNA content by 50% (IC50 PGIM).

[1] = Mammalian cytotoxicity, HeLa cells, 72 hr, MTS; type: cell-based, human; conditions: human, HeLa cells; for CC50 at 72 h: 3 days
Description: (§1) Cytotoxicity of the inhibitor compounds was quantified using human HeLa cells (CLL-2; American Type Culture Collection, Manassas, VA) seeded at 4000 cells/well in 96-well plates. Cultures were incubated with individual inhibitor compounds for 72 hr at 37° C. in minimal essential medium (Invitrogen) supplemented with 10% fetal calf serum.

human HeLa cells = experiment: Mammalian cytotoxicity, HeLa cells, 72 hr, MTS; type: cell-based
Description: as §1

[2] = Microsome stability (MLMS); type: in vitro ADME, mouse; conditions: murine liver microsomes; for MLMS % consumed: after 30 min.
Description: The microsome and serum stability assays measure the stability of the inhibitor compounds when exposed to the liver and to serum in vivo. For microsomal stability measurements, inhibitor compounds were incubated with mouse microsomal proteins in buffer with NADPH (Bevan, C. and R. Lloyd, Anal. Chem., 72:1781-1787 (2000)) and the resulting samples were analyzed by LC/MS to quantitate the remaining parent. The data are calculated as percent of parent remaining.

Serum stability (MSS) = type: in vitro ADME; conditions: mouse serum exposure; for MSS % consumed: after 60 minutes
Description: The microsome and serum stability assays measure the stability of the inhibitor compounds when exposed to the liver and to serum in vivo. For serum stability, inhibitor compounds were exposed to 55% mouse serum and the resulting samples analyzed by LC/MS to quantitate the remaining parent. […]

CYP3A4 = CYP3A4 (Homo sapiens, UniProt P08684); experiment: Cytochrome P450 inhibition, fluorogenic substrate assay; type: in vitro ADME
Description: To measure Cytochrome P450 inhibition, a fluorogenic substrate assay was used to measure inhibitor compound interference with enzymes that metabolize drugs in vivo (Houston, J., Biochem. Pharmacol., 47:1469-1479 (1994)).

Caco-2 permeability = type: in vitro ADME; conditions: human, Caco-2; read-out: Papp, Caco-2 cell monolayer
Description: (§2) The Caco-2 assay is an indicator of the potential oral bioavailability of the inhibitor compound. Caco-2 cells were applied to wells of a collagen-coated BioCoat Cell Environment (BD Biosciences) plate as described (Duraisingh, M., and A. Cowman, Acta Trop., 94:181-190 (2005)). The test agent was added to the apical (A) side and the amount of permeation was determined on the basolateral (B) side by LC/MS/MS analysis. The amount of material on the A and B sides were used to calculate a Papp value (Caco-2 Papp).

[3] = Solubility by nephelometric method; type: physicochemical
Description: The solubility of the inhibitor compounds was determined by the nephelometric method (Bevan, C., and R. Lloyd, supra (2000)). A high-throughput screening method for the determination of aqueous drug solubility using laser nephelometry in microtiter plates. The compounds were serially diluted in DMSO and then added to water. […] Additionally, to confirm the nephelometry results, compounds were stirred with a test vehicle (deionized water, PBS, or D5W) at 20° C. for 4 hours. Additional compound was added if complete dissolution was obtained. The mixture was then filtered and the filtrate assayed by HPLC to quantify the amount of compound in solution (Solubility).

[4] = Protein binding in mouse serum by equilibrium dialysis; type: in vitro ADME
Caco-2 cells = experiment: Caco-2 permeability; type: in vitro ADME; conditions: apical to basolateral
Description: as §2

[5] = mouse, in vivo
Description: (§3) Tolerability. […] Pharmacokinetics (PK). […] PK parameters were calculated using the WinNonLin program. Efficacy.

[6] = tested on: P. falciparum Pf3D70087/N9; experiment: Murine efficacy, humanized NSG mouse model infected with P. falciparum; type: in vivo
Description: as §3
In a second study, NSG mice were treated with either 25 mg/kg or 50 mg/kg of MBX 4055 either once or twice daily for 4 days by the oral route. […] Percent parasitemia was measured daily for 5 days as were the plasma levels of MBX 3318 and 4055.
Humanized NSG mice infected with P. falciparum were treated with 100 mg/kg of MBX 3318 twice daily for 4 days by the PO route. Control mice were treated with vehicle alone (10% DMSO, 80% PEG400, 1% Polysorbate 80). […] During the assay, blood samples were taken from mice treated with MBX 3318 to measure the levels of compound (FIG. 2B).
The murine model was also employed against MBX 4055. Humanized NSG mice infected with P. falciparum were treated with 25 or 50 mg/kg of MBX 4055 twice daily or 50 mg/kg once daily, for 4 days by the PO route. […] Unfortunately, the remaining mice that were dosed twice daily, including the vehicle-only mouse died within 2-5 days due to the apparent toxicity of the Labrasol-containing vehicle. During the assay, blood samples were taken from mice treated with MBX 4055 to measure the levels of compound (FIG. 3B).

CD-1 mice = experiment: Murine tolerability; conditions: not dose-related, considered formulation-related
Description: Tolerability. The test compounds were dissolved at concentrations of 1 to 10 mg/mL in various formulations (5% DMSO, 5% cremophor, 80% PEG-300 or 10% DMSO, 80% PEG-400, 1% Polysorbate 80). Male CD-1 mice were dosed with 4 dose levels of each test compound (vehicle control plus 3 dose levels ranging from 10-200 mg/kg as described in Table 8) of test compound by the intravenous (IV), intraperitoneal (IP) or oral (PO) route. Clinical observations described in Table 8 were made at various time points out to 24 hours after which mice were humanely euthanized.
Animals were monitored for 24 hours for signs of toxicity.

[7] = mouse serum, equilibrium dialysis

Sequence of CYP3A4 (P08684 whole entry, species assumed): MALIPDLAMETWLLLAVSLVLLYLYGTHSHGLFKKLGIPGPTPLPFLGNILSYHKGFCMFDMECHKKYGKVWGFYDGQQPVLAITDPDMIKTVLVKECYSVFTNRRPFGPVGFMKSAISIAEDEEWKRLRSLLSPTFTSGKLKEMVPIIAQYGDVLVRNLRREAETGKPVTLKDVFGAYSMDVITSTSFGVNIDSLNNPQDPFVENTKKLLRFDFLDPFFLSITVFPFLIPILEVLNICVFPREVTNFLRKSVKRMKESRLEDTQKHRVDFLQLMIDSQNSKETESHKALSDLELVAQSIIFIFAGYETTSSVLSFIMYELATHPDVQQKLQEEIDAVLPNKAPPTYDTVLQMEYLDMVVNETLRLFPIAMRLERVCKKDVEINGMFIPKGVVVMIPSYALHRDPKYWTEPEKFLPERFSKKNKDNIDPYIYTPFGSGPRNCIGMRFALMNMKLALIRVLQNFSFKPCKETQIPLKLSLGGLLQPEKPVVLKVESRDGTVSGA

What does the source list for Cc1ccc(C)c(N2CCN(S(=O)(=O)c3ccc(-c4ccc(=O)[nH]n4)s3)CC2)c1 [ISG-21, reference compound]?
K0.5, activity in the PSAC assay (PSAC; Table 3): 0.003 µM; PSAC K0.5 (PSAC): 0.003 µM; IC50 (P. falciparum; Plasmodium falciparum, Pf growth inhibition in PGIM, 72 hr, read-out: IC50 PGIM): 2 nM; IC50 (P. falciparum; Plasmodium falciparum, Table 3, read-out: IC50, Pf growth inhibition in PGIM): 2 nM; CC50 at 72 h ([1]; Table 3, read-out: CC50, cytotoxicity against HeLa cells): 86000 nM; selectivity ratio at 72 h ([1]; HeLa CC50 divided by growth inhibition IC50): 37000; SI CC50/PSAC K0.5 (human HeLa cells; HeLa CC50 / PSAC K0.5): 28,700; MLMS (% cons) ([2]; % consumed after 30 min., Table 4): 17 % cons; MLMS % consumed [2]: 17 % consumed; MSS (% cons) (Serum stability (MSS); % consumed after 60 minutes, Table 4): 0 % cons; MSS % consumed (Serum stability (MSS)): 0 % consumed; Cyp 3A4 % inhib. at 5 μM (CYP3A4): 0 % inhib.; inhibition at 5 µM (CYP3A4; human, Table 4, read-out: Cyp 3A4 % Inhib): 0%; Papp A→B (Caco-2 permeability): < 0.5 ×10⁻⁶ cm/s; solubility ([3]; water, kinetic from dmso stock, H2O, Table 4, read-out: Sol., solubility limit in H2O): 25 µM (≈ 10.8 µg/mL); binding by serum proteins [4]: highly bound by serum proteins; Mouse PB % bound [4, 7]: 100 % bound; fraction unbound ([4]; mouse serum, equilibrium dialysis, Table 4, read-out: PPB, percent protein bound): 0.001

Which “PSAC K0.5” value (PSAC) does the source give for N#Cc1cccnc1N1CCN(S(=O)(=O)c2ccc(-c3ccc(=O)[nH]n3)s2)CC1 [MBX-2997, 2-(4-((5-(6-oxo-1,6-dihydropyridazin-3-yl)thiophen-2-yl)sulfonyl)piperazin-1-yl)nicotinonitrile] here?
Its value is 0.007 µM.

What about the IC50 (P. falciparum; Plasmodium falciparum, 72 h, read-out: IC50 PGIM) of the same compound?
Its IC50 is 38 nM.

And the CC50 at 72 h ([1]; Table 6, read-out: HeLa CC50)?
Its CC50 at 72 h is > 200000 nM.

And the “SI CC50/PSAC K0.5” value (human HeLa cells; HeLa CC50 / PSAC K0.5)?
Its value is >28,500.

What about the solubility ([3]; water, kinetic from dmso stock, solubility limit in H2O, read-out: Solubility) of the same compound?
Its solubility is 25 µM (≈ 10.7 µg/mL).

Which “PSAC K0.5” value (PSAC) does the source give for Cc1nccnc1N1CCN(S(=O)(=O)c2ccc(-c3ccc(=O)[nH]n3)s2)CC1 [MBX-4055] here?
Its value is 0.021 µM.

What about the IC50 (P. falciparum; Pf growth inhibition in PGIM, 72 hr, read-out: IC50 PGIM) of the same compound?
Its IC50 is 42 nM.

And the CC50 (human HeLa cells; 3 days, Table 6, read-out: HeLa CC50)?
Its CC50 is > 200000 nM.

What about the “SI CC50/PSAC K0.5” value (human HeLa cells; HeLa CC50 / PSAC K0.5) of the same compound?
The value was >9,524.

What about the MLMS % consumed [2] of the same compound?
Its MLMS % consumed is 47 % consumed.

And the MSS % consumed (Serum stability (MSS))?
Its MSS % consumed is 5 % consumed.

What about the “Cyp 3A4 % inhib. at 5 μM” value (CYP3A4) of the same compound?
The value was 0 % inhib.

And the “Caco-2 Papp” value (Caco-2 cells)?
The value was 7.8 ×10⁻⁶ cm/s.

What about the solubility ([3]; solubility limit in H2O, read-out: Solubility) of the same compound?
Its solubility is 25 µM (≈ 10.5 µg/mL).

What about the “Mouse PB % bound” value [4, 7] of the same compound?
The value was 94 % bound.

What about the “% F (oral bioavailability)” value [5] of the same compound?
The value was 66%.

What about the “half-lives (FIG. 1, clearance rates)” value [5] of the same compound?
The value was “favorable half-lives”.

And the AUClast ([5]; iv, 10 mg/kg)?
Its AUClast is 34,275 hr*ng/mL.

What about the Clearance ([5]; iv, 10 mg/kg) of the same compound?
The Clearance was 6.53 mL/min/kg.

What about the Half-life ([5]; iv, 10 mg/kg) of the same compound?
The Half-life was 1.39 h.

And the Mean residence time ([5]; iv, 10 mg/kg)?
The Mean residence time was 1.35 h.

What about the VD ([5]; iv, 10 mg/kg) of the same compound?
Its VD is 0.786 L/kg.

What about the “increase in normalized exposure relative to MBX 3318” value ([5]; po) of the same compound?
The value was > 30 fold.

And the AUClast ([5]; po, 30 mg/kg)?
Its AUClast is 67,501 hr*ng/mL.

And the Cmax ([5]; po, 30 mg/kg)?
The Cmax was 11,733 ng/mL.

What about the Half-life ([5]; po, 30 mg/kg) of the same compound?
The Half-life was 2.27 h.

What about the “Normalized AUC” value ([5]; po, 30 mg/kg) of the same compound?
The value was 22,500.

What about the Tmax ([5]; po, 30 mg/kg) of the same compound?
The Tmax was 1 h.

What about the “reduction of parasite growth with respect to control mice” value ([6]; humanized NSG mouse, 50 mg/kg once daily for 4 days, PO) of the same compound?
The value was “over 90%”.

And the “blood levels of compound compared with IC50 in vitro” value ([6]; infected NSG mice treated with MBX 4055 PO, FIG. 3B)?
Its value is “well above the IC50 in vitro”.

What about the “signs of toxicity, PO dosing” value (CD-1 mice) of the same compound?
The value was “some slight lethargy”.

For N#Cc1ccncc1N1CCN(C(=O)c2ccc(C(=O)N3CCCC3)s2)CC1 [MBX-4075], which “PSAC K0.5” value (PSAC) is on record?
Its value is 1.08 µM.

What about the CC50 (human HeLa cells) of the same compound?
Its CC50 is > 200000 nM.

What about the “SI CC50/PSAC K0.5” value (human HeLa cells) of the same compound?
Its value is >185.
